The values below come from patent US11304945B2, “Pharmaceutical composition and method for preparing same” (Jiangsu Hengrui Medicine Co., Ltd., priority 2017, dated 2022).

A short description of this data set: Pharmacokinetics (PK) study in animals. Type of data set: in vivo. The note with it: both sexes, dog; beagle dogs, oral, 30 mg/kg, plasma. As for the experimental part:
12 beagle dogs were grouped into two groups (6 beagle dogs per group, half male and half female). The beagle dogs were fasted for more than 12 h before the experiment, and food was provided 4 h after the drug administration on the day of the experiment. Water was not deprived during the experiment. The crystal form of compound A and the solid dispersion of compound A, respectively (the ratio of compound A to hydroxypropyl methylcellulose acetate succinate was 1:1, according to the formulation of Experimental Example 3), were administered orally to the two groups of animals with an administration dose of 30 mg/kg. 0.6 mL of blood was taken from climb veins before administration and 0.25, 0.5, 1.0, 2.0, 4.0, 6.0, 8.0, 12, 24 and 72 h after administration. The blood was stored in an ethylenediaminetetraacetic acid (EDTA) anticoagulant tube, and centrifuged for 10 minutes at 3500 rpm (4° C.) to separate the blood plasma. The plasma was stored at −70° C.
The concentration of API in the blood plasma and the administrated solution was determined by liquid chromatography-tandem mass spectrometry (LC/MS/MS). The pharmacokinetic parameters of beagle dogs after drug administration were calculated with the resulting plasma concentration using the non-compartmental model of Phoenix WinNonlin 6.4 software.

The AUC(0-inf) is total exposure, with the tail of the curve extrapolated. Lower therefore signals less exposure. As a reminder, the Cmax is the highest concentration seen after dosing. As usually defined, the half-life is the time in which the quantity being followed falls by half. Read a low half-life as fast loss. In turn, `CC#CC(=O)N1CC[C@@H](n2cc(-c3ccc(Oc4c(F)cccc4F)cc3)c3c(N)n[nH]c(=O)c32)C1` [Crystal form of compound A, (R)-4-amino-1-(1-(but-2-ynoyl)pyrrolidin-3-yl)-3-(4-(2,6-difluorophenoxy)phenyl)-1,6-dihydro-7H-pyrrolo[2,3-d]pyridazin-7-one] gave an AUC(0-inf) of 3870 ± 3170 ng·h/mL, a Cmax of 630 ± 530 ng/mL and a half-life of 3.02 ± 0.65 h.
